Laboratory results taken from US10456407B2, “Combination therapy for treating cancer” (Epizyme, Inc., priority 2015, dated 2019).

Test system: WSU-DLCL2 cells
Experiment: RT2 Glucocorticoid signaling PCR array, WSU-DLCL2 (WSU) cell line (Table 4c)
Format: cell-based

Structure (SMILES): CCN(c1cc(-c2ccc(CN3CCOCC3)cc2)cc(C(=O)NCc2c(C)cc(C)[nH]c2=O)c1C)C1CCOCC1 [Compound 44]
- Ct Values, ACTB (gene ACTB): 15.450
- ΔCT (B2M), ACTB (gene ACTB): −4.235
- Ct Values, ADARB1 (gene ADARB1): 25.386
- ΔCT (B2M), ADARB1 (gene ADARB1): 5.701
- ΔΔCT, ADARB1 (gene ADARB1, compared to DMSO): −1.165
- Ct Values, AFF1 (gene AFF1): 27.925
- ΔCT (B2M), AFF1 (gene AFF1): 8.240
- ΔΔCT, AFF1 (gene AFF1, compared to DMSO): −0.413
- Ct Values, AK2 (gene AK2): 21.365
- ΔCT (B2M), AK2 (gene AK2): 1.680
- ΔΔCT, AK2 (gene AK2, compared to DMSO): 0.486
- Ct Values, AMPD3 (gene AMPD3): 27.162
- ΔCT (B2M), AMPD3 (gene AMPD3): 7.477
- ΔΔCT, AMPD3 (gene AMPD3, compared to DMSO): −1.540
- Ct Values, ANGPTL4 (gene ANGPTL4): 30.487
- ΔCT (B2M), ANGPTL4 (gene ANGPTL4): 10.802
- ΔΔCT, ANGPTL4 (gene ANGPTL4, compared to DMSO): −1.192
- Ct Values, ANXA4 (gene ANXA4): 24.659
- ΔCT (B2M), ANXA4 (gene ANXA4): 4.974
- ΔΔCT, ANXA4 (gene ANXA4, compared to DMSO): −3.312
- Ct Values, AQP1 (gene AQP1): 33.645
- ΔCT (B2M), AQP1 (gene AQP1): 13.960
- Ct Values, ARID68 (gene ARID68): 26.126
- ΔCT (B2M), ARID68 (gene ARID68): 6.441
- ΔΔCT, ARID68 (gene ARID68, compared to DMSO): −0.353
- Ct Values, ASPH (gene ASPH): 22.415
- ΔΔCT, ASPH (gene ASPH, compared to DMSO): −0.105
- Ct Values, ATF4 (gene ATF4): 20.470
- ΔCT (B2M), ATF4 (gene ATF4): 0.785
- ΔΔCT, ATF4 (gene ATF4, compared to DMSO): 0.361
- Ct Values, B2M (gene B2M (normaliser)): 19.685
- ΔCT (B2M), B2M (gene B2M (normaliser)): 0.000
- Ct Values, BCL6 (gene BCL6): 20.795
- ΔCT (B2M), BCL6 (gene BCL6): 1.110
- ΔΔCT, BCL6 (gene BCL6, compared to DMSO): −0.394
- Ct Values, CEBPA (gene CEBPA): 27.014
- ΔCT (B2M), CEBPA (gene CEBPA): 7.329
- ΔΔCT, CEBPA (gene CEBPA, compared to DMSO): −1.659
- Ct Values, CEBPB (gene CEBPB): 26.770
- ΔCT (B2M), CEBPB (gene CEBPB): 7.085
- ΔΔCT, CEBPB (gene CEBPB, compared to DMSO): 1.269
- Ct Values, CREB1 (gene CREB1): 23.413
- ΔCT (B2M), CREB1 (gene CREB1): 3.728
- ΔΔCT, CREB1 (gene CREB1, compared to DMSO): 0.008
- Ct Values, CREB3 (gene CREB3): 25.459
- ΔCT (B2M), CREB3 (gene CREB3): 5.774
- ΔΔCT, CREB3 (gene CREB3, compared to DMSO): −0.085
- Ct Values, CREB3L4 (gene CREB3L4): 24.392
- ΔCT (B2M), CREB3L4 (gene CREB3L4): 4.707
- ΔΔCT, CREB3L4 (gene CREB3L4, compared to DMSO): −0.915
- Ct Values, CYB561 (gene CYB561): 31.478
- ΔCT (B2M), CYB561 (gene CYB561): 11.793
- ΔΔCT, CYB561 (gene CYB561, compared to DMSO): −5.631
- Ct Values, DDIT4 (gene DDIT4): 24.404
- ΔCT (B2M), DDIT4 (gene DDIT4): 4.719
- ΔΔCT, DDIT4 (gene DDIT4, compared to DMSO): −0.060
- Ct Values, DUSP1 (gene DUSP1): 27.284
- ΔCT (B2M), DUSP1 (gene DUSP1): 7.599
- ΔΔCT, DUSP1 (gene DUSP1, compared to DMSO): 1.370
- Ct Values, EDN1 (gene EDN1): 26.349
- ΔCT (B2M), EDN1 (gene EDN1): 6.664
- Ct Values, EHD3 (gene EHD3): 24.270
- ΔCT (B2M), EHD3 (gene EHD3): 4.585
- ΔΔCT, EHD3 (gene EHD3, compared to DMSO): −5.639
- Ct Values, ERRFI1 (gene ERRFI1): 32.771
- ΔCT (B2M), ERRFI1 (gene ERRFI1): 13.086
- Ct Values, FK8PS (gene FK8PS): 23.267
- ΔCT (B2M), FK8PS (gene FK8PS): 3.582
- ΔΔCT, FK8PS (gene FK8PS, compared to DMSO): 0.159
- Ct Values, FOSL2 (gene FOSL2): 34.140
- ΔCT (B2M), FOSL2 (gene FOSL2): 14.455
- ΔΔCT, FOSL2 (gene FOSL2, compared to DMSO): 2.796
- Ct Values, GAPDH (gene GAPDH): 17.275
- ΔCT (B2M), GAPDH (gene GAPDH): −2.410
- Ct Values, GDPD1 (gene GDPD1): 27.494
- ΔCT (B2M), GDPD1 (gene GDPD1): 7.809
- ΔΔCT, GDPD1 (gene GDPD1, compared to DMSO): −1.112
- Ct Values, GHRHR (gene GHRHR): 39.957
- ΔCT (B2M), GHRHR (gene GHRHR): 20.272
- ΔΔCT, GHRHR (gene GHRHR, compared to DMSO): 5.086
- Ct Values, GLUL (gene GLUL): 28.395
- ΔCT (B2M), GLUL (gene GLUL): 8.710
- Ct Values, GOT1 (gene GOT1): 23.827
- ΔCT (B2M), GOT1 (gene GOT1): 4.142
- ΔΔCT, GOT1 (gene GOT1, compared to DMSO): 0.708
- Ct Values, H6PD (gene H6PD): 25.976
- ΔCT (B2M), H6PD (gene H6PD): 6.291
- ΔΔCT, H6PD (gene H6PD, compared to DMSO): −0.619
- Ct Values, HNRPLL (gene HNRPLL): 24.170
- ΔCT (B2M), HNRPLL (gene HNRPLL): 4.485
- ΔΔCT, HNRPLL (gene HNRPLL, compared to DMSO): −0.037
- Ct Values, HPRT1 (gene HPRT1): 22.793
- ΔCT (B2M), HPRT1 (gene HPRT1): 3.108
- Ct Values, IL1RN (gene IL1RN): 28.388
- ΔCT (B2M), IL1RN (gene IL1RN): 8.703
- Ct Values, IL6R (gene IL6R): 33.814
- ΔCT (B2M), IL6R (gene IL6R): 14.129
- Ct Values, IL10 (gene IL10): 34.229
- ΔCT (B2M), IL10 (gene IL10): 14.544
- Ct Values, KLF9 (gene KLF9): 28.881
- ΔCT (B2M), KLF9 (gene KLF9): 9.196
- ΔΔCT, KLF9 (gene KLF9, compared to DMSO): −2.195
- Ct Values, KLF13 (gene KLF13): 23.800
- ΔCT (B2M), KLF13 (gene KLF13): 4.115
- ΔΔCT, KLF13 (gene KLF13, compared to DMSO): −0.974
- Ct Values, LOX (gene LOX): 34.399
- ΔCT (B2M), LOX (gene LOX): 14.714
- ΔΔCT, LOX (gene LOX, compared to DMSO): −0.102
